Our source for the IC50 values is publication PMC10928712, “High Target Homology Does Not Guarantee Inhibition: Aminothiazoles Emerge as Inhibitors of Plasmodium falciparum” (ACS Infectious Diseases, 2024).

One assay has as its system P. falciparum Dd2. Kind of assay: Method III growth inhibition assay (HRP2-ELISA, 3 days), Dd2. Format: cell-based, Plasmodium falciparum.
Another assay deals with P. falciparum 3D7. Kind of assay: Method III growth inhibition assay (HRP2-ELISA, 3 days), 3D7. The class given is cell-based, Plasmodium falciparum. Background: In an ELISA, binding on a coated surface is turned into a signal by an enzyme label.
[1] abbreviates: Plasmodium falciparum, DD2, chloroquine-resistant Dd2, method III.
The mark [2] stands for this setting: Plasmodium falciparum, 3D7, 3D7, method III (HRP2 assay), drc package of R, read-out: IC50 P. falciparum 3D7 (method III).
Where [3] appears, read: Plasmodium falciparum, 3D7, table of compounds as SMILES with biological activity, strain not given, values match 3D7 method III, read-out: IC50.
[4] abbreviates: chloroquine-resistant Dd2, method III.
Where [5] appears, read: 3D7, method III (HRP2 assay), drc package of R, read-out: IC50 P. falciparum 3D7 (method III).
The mark [6] stands for this setting: table of compounds as SMILES with biological activity, strain not given, values match 3D7 method III, read-out: IC50.

“And” between values parts separate entries of the source, which are not always exact repeats. Identical values can stand only once. Like-named read-outs stand apart in the source and are kept apart here.

Turning to `OCc1cn(-c2ccc(Cl)c(Cl)c2)c2ccccc12` [compound 15, (1-(3,4-Dichlorophenyl)-1H-indol-3-yl)methanol], the concentration for half-maximal inhibition (IC50) – broadly, the point on the concentration scale where inhibition reaches its midpoint – in the assay on P. falciparum Dd2 (setting [1]) was 54 ± 6 µM; in the assay on P. falciparum 3D7 (setting [2]), more than 56 µM; in the assay with P. falciparum 3D7 (setting [3]) it was 55.5 µM.

Consider `N#Cc1ccc2c(CO)cn(Cc3ccc(Cl)c(Cl)c3)c2c1` [compound 17], for which the IC50 with P. falciparum Dd2 (setting [1]) was 44 ± 9 µM; in the assay with P. falciparum 3D7 (setting [2]) it was 44 ± 19 µM; in the assay with P. falciparum 3D7 (setting [3]), 43.8 µM.

With `OCc1cn(Cc2ccc(Cl)c(Cl)c2)c2ncccc12` [compound 14, (1-(3,4-Dichlorobenzyl)-1H-pyrrolo[2,3-b]pyridin-3-yl)methanol], the IC50 in the assay with P. falciparum Dd2 (setting [1]) was 91 ± 18 µM; in the assay on P. falciparum 3D7 (setting [2]), more than 111 µM.

For the compound `OCc1cn(Cc2cccc(Cl)c2)c2cccc(F)c12` [compound 24, (1-(3-Chlorobenzyl)-4-fluoro-1H-indol-3-yl)methanol], the concentration for half-maximal inhibition (IC50) with P. falciparum Dd2 (setting [1]) stood at 10 ± 1 µM; with P. falciparum 3D7 (setting [2]), 12 ± 1 µM.

For the compound `COc1ccc(C(Cc2ccc(Cl)cc2)=NO)cn1` [7Z, 2-(4-Chlorophenyl)-1-(6-methoxypyridin-3-yl)ethan-1-one oxime], the concentration for half-maximal inhibition (IC50) with P. falciparum Dd2 (setting [4]) and in the assay on P. falciparum 3D7 (setting [5]) was more than 111 µM each time.

Take `Clc1ccc(Cn2ccc3ccccc32)cc1Cl` [compound 28, 1-(3,4-Dichlorobenzyl)-1H-indole]: the results for the half-maximal inhibitory concentration (IC50) in the assay with P. falciparum Dd2 (setting [1]), with P. falciparum 3D7 (setting [5]) and in the assay on P. falciparum 3D7 (setting [2]) were 18 ± 7 µM, 8.1 µM and approximately 8 µM, respectively.

As for `COc1cccc2c1c(CO)cn2Cc1cccc(Cl)c1` [compound 22, (1-(3-Chlorobenzyl)-4-methoxy-1H-indol-3-yl)methanol], the IC50 amounted to 14 ± 4 µM in the assay on P. falciparum Dd2 (setting [1]), 16 ± 3 µM in the assay on P. falciparum 3D7 (setting [2]), 13.8 µM in the assay on P. falciparum 3D7 (setting [3]) and 15.6 µM with P. falciparum 3D7 (setting [6]).

On to `ON=C(Cc1ccc(Cl)cc1)c1ccc(O)nc1` [8E, 2-(4-Chlorophenyl)-1-(6-hydroxypyridin-3-yl)ethan-1-one oxime], for which the IC50 in the assay on P. falciparum Dd2 (setting [4]) and in the assay with P. falciparum 3D7 (setting [5]) was more than 111 µM throughout.

“N-(3-Chloro-2-methylphenyl)-5-(pyridin-2-yl)thiazol-2-amine [compound 44]”: the results for the IC50 with P. falciparum Dd2 (setting [4]), in the assay on P. falciparum 3D7 (setting [5]) and in the assay with P. falciparum 3D7 (setting [6]) were 2 ± 1 µM, 3 µM and 2.8 µM, respectively.

As for `OCc1cn(Cc2ccc(Cl)cc2)c2ccccc12` [compound 20], the IC50 turned out to be 22 ± 5 µM with P. falciparum Dd2 (setting [1]), 28 ± 14 µM in the assay with P. falciparum 3D7 (setting [2]) and 27.2 µM in the assay on P. falciparum 3D7 (setting [3]).

With “2′,4′-Dimethyl-N-(4-(trifluoromethyl)phenyl)-[5,5′-bithiazol]-2-amine [compound 41]”, the IC50 with P. falciparum Dd2 (setting [4]) was 5 µM; in the assay with P. falciparum 3D7 (setting [5]), ~10 µM and 10 µM; in the assay on P. falciparum 3D7 (setting [6]) it was 9.5 µM.

Regarding `O=[N+]([O-])c1ccc2c(c1)c(CO)cn2Cc1ccc(Cl)c(Cl)c1` [compound 29, (1-(3,4-Dichlorobenzyl)-5-nitro-1H-indol-3-yl)methanol], the IC50 is 4 ± 1 µM with P. falciparum Dd2 (setting [1]), 7 µM in the assay on P. falciparum 3D7 (setting [5]), less than 10 µM in the assay with P. falciparum 3D7 (setting [2]) and 7.2 µM in the assay with P. falciparum 3D7 (setting [3]).

In the case of `Cc1cn(Cc2ccc(Cl)c(Cl)c2)c2ccccc12` [compound 26, 1-(3,4-Dichlorobenzyl)-3-methyl-1H-indole], the IC50 was 11 ± 5 µM with P. falciparum Dd2 (setting [1]), 10.2 µM in the assay with P. falciparum 3D7 (setting [5]) and approximately 10 µM with P. falciparum 3D7 (setting [2]).

In the case of `Cc1ccc(Nc2nc(-c3ccc(O)c(O)c3)cs2)cc1C` [compound 42, 4-(2-((3,4-Dimethylphenyl)amino)thiazol-4-yl)benzene-1,2-diol], the IC50 with P. falciparum Dd2 (setting [1]) was 7 ± 1 µM; with P. falciparum 3D7 (setting [2]), 4 ± 1 µM; in the assay with P. falciparum 3D7 (setting [3]), 4.4 µM.

Turning to `CON=C(Cc1ccc(Cl)cc1)c1ccc(O)cc1O` [compound 11, (E)-2-(4-Chlorophenyl)-1-(2,4-dihydroxyphenyl)ethan-1-one o-Methyl Oxime], the IC50 in the assay with P. falciparum Dd2 (setting [1]) was determined as 19 ± 3 µM; with P. falciparum 3D7 (setting [2]), 28 ± 9 µM.

With `Cc1ccc(C)c(Nc2nc(-c3ccccn3)cs2)c1` [compound 43, N-(2,5-Dimethylphenyl)-4-(pyridin-2-yl)thiazol-2-amine], the IC50 was 5 ± 1 µM in the assay with P. falciparum Dd2 (setting [1]), 4 ± 2 µM in the assay with P. falciparum 3D7 (setting [2]) and 3.7 µM in the assay with P. falciparum 3D7 (setting [3]).
